In patent US20220106301A1, “ACETAMIDO-PHENYLBENZAMIDE DERIVATIVES AND METHODS OF USING THE SAME” (Athenex, Inc., priority 2020, published 2022):

Target: CYP3A4 (Homo sapiens, UniProt P08684)
Experiment: Determination of CYP3A4 inhibitory activity (human liver microsome, Luciferin-IPA)
Conditions: CYP3A4 IC50 (nM), 37° C. 11 minutes
Procedure, shortened: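 Final compound concentrations 37, 111, 333, 1000 and 3000 nM; reaction at 37° C for 11 min, then luciferin detection reagent 5 min at room temperature with luminescence read-out. IC50 from nonlinear regression of dose-response.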

Sequence of CYP3A4 (P08684 whole entry): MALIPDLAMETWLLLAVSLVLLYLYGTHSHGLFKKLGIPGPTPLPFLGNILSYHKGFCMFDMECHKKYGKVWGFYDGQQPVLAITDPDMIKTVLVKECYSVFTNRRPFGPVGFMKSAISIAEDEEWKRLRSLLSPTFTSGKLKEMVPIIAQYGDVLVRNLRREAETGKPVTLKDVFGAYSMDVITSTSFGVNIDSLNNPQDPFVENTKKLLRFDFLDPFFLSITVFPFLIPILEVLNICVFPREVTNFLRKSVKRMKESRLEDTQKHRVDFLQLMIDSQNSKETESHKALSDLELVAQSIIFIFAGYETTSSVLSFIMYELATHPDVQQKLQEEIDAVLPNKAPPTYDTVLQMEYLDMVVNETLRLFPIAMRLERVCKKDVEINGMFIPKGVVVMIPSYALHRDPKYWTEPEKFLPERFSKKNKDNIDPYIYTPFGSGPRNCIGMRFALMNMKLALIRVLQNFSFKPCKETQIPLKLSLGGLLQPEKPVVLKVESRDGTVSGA

IC50 [nM] | SMILES
500 to 1000 | COc1cc(NC(=O)c2cc(=O)c3ccccc3o2)c(C(=O)Nc2ccc(CCN(Cc3cncc(Cl)c3)Cc3ccc4c(cnn4C)c3)cc2)cc1OC [Compound 227]
> 1000 | COc1cc(NC(=O)c2cc(=O)c3ccccc3o2)c(C(=O)Nc2ccc(CCN(Cc3ccc4c(cnn4C)c3)Cc3cnccc3O)cc2)cc1OC [Compound 228]
250 to 500 | COc1cc(NC(=O)c2cc(=O)c3ccccc3o2)c(C(=O)Nc2ccc(CCN(Cc3cccnc3)Cc3cnc(-c4ccccc4F)nc3)cc2)cc1OC [Compound 229]
100 to 250 | COc1cncc(CN(CCc2ccc(NC(=O)c3cc(OC)c(OC)cc3NC(=O)c3cc(=O)c4ccccc4o3)cc2)Cc2cnc(-c3ccccc3F)nc2)c1 [Compound 230]
> 1000 | COc1cc(NC(=O)c2cc(=O)c3ccccc3o2)c(C(=O)Nc2ccc(CCN(Cc3ccc4c(cnn4C)c3)C(=O)OC(C)(C)C)cc2)cc1OC [Compound 231]
< 100 | COc1cc(NC(=O)c2cc(=O)c3ccccc3o2)c(C(=O)NCc2ccc(CN(Cc3ccc4c(cnn4C)c3)Cc3ccccc3-n3ccnc3)cc2)cc1OC [Compound 232]
100 to 250 | COc1cc(NC(=O)c2cc(=O)c3ccccc3o2)c(C(=O)NCc2ccc(CN(Cc3cccc(-n4ccnc4)c3)Cc3ccc4c(cnn4C)c3)cc2)cc1OC [Compound 233]
100 to 250 | COc1cc(NC(=O)c2cc(=O)c3ccccc3o2)c(C(=O)NCc2ccc(CN(Cc3cccnc3)Cc3ccc4c(cnn4C)c3)cc2)cc1OC [Compound 234]
100 to 250 | COc1cncc(CN(Cc2ccc(CNC(=O)c3cc(OC)c(OC)cc3NC(=O)c3cc(=O)c4ccccc4o3)cc2)Cc2ccc3c(cnn3C)c2)c1 [Compound 235]
> 1000 | COc1cc(NC(=O)c2cc(=O)c3ccccc3o2)c(C(=O)NCc2ccc(CN(Cc3cccc(-c4cncs4)c3)Cc3ccc4c(cnn4C)c3)cc2)cc1OC [Compound 236]
100 to 250 | COc1cc(NC(=O)c2cc(=O)c3ccccc3o2)c(C(=O)NCc2ccc(CN(Cc3ccc(-n4ccnc4)cc3)Cc3ccc4c(cnn4C)c3)cc2)cc1OC [Compound 237]
> 1000 | COc1cc(NC(=O)c2cc(=O)c3ccccc3o2)c(C(=O)NCc2ccc(CN(Cc3ccc(-c4cncs4)cc3)Cc3ccc4c(cnn4C)c3)cc2)cc1OC [Compound 238]
> 1000 | COc1cc(NC(=O)c2cc(=O)c3ccccc3o2)c(C(=O)Nc2ccc(CCN(Cc3cncc(OCC(C)C)c3)Cc3ccc4c(cnn4C)c3)cc2)cc1OC [Compound 239]
250 to 500 | COc1cc(NC(=O)c2cc(=O)c3ccccc3o2)c(C(=O)Nc2ccc(CCN(Cc3cncc(OCCN4CCOCC4)c3)Cc3ccc4c(cnn4C)c3)cc2)cc1OC [Compound 240]
> 1000 | COc1cc(NC(=O)c2cc(=O)c3ccccc3o2)c(C(=O)Nc2ccc(CCN(Cc3ccc(-n4ccnc4C)cc3)Cc3ccc4c(cnn4C)c3)cc2)cc1OC [Compound 241]
250 to 500 | COc1cc(NC(=O)c2cc(=O)c3ccccc3o2)c(C(=O)Nc2ccc(CCN(Cc3cccc(OC[C@@H]4CO[C@@](Cn5ccnc5)(c5ccc(Cl)cc5Cl)O4)c3)Cc3ccc4c(cnn4C)c3)cc2)cc1OC [Compound 242]
> 1000 | COc1cc(NC(=O)c2cc(=O)c3ccccc3o2)c(C(=O)Nc2ccc(CCN(Cc3ccc(-n4ccnc4C)cc3)Cc3cccc(-n4ccnc4)c3)cc2)cc1OC [Compound 243]
> 1000 | COc1cc(NC(=O)c2cc(=O)c3ccccc3o2)c(C(=O)Nc2ccc(CCN(Cc3cncc(OCCN(C)C)c3)Cc3ccc4c(cnn4C)c3)cc2)cc1OC [Compound 244]

The remaining lines, values behind:

SMILES | IC50 [nM]
COc1cc(NC(=O)c2cc(=O)c3ccccc3o2)c(C(=O)Nc2ccc(CCN(Cc3ccc4c(c3)c(C)nn4C)Cc3ccc4c(c3)c(C)nn4C)cc2)cc1OC [Compound 180] | > 1000
COc1cc(NC(=O)c2cc(=O)c3ccccc3o2)c(C(=O)Nc2ccc(CCN(Cc3ccc4c(cnn4C)c3)Cc3ccc4c(c3)c(C)nn4C)cc2)cc1OC [Compound 181] | > 1000
COc1cc(NC(=O)c2cc(=O)c3ccccc3o2)c(C(=O)Nc2ccc(CCN(Cc3ccncc3)Cc3ccc4cnn(C)c4c3)cc2)cc1OC [Compound 182] | < 100
CCN(CCc1ccc(NC(=O)c2cc(OC)c(OC)cc2NC(=O)c2cc(=O)c3ccccc3o2)cc1)Cc1ccc2[nH]ncc2c1 [Compound 184] | > 1000
CCN(CCc1ccc(NC(=O)c2cc(OC)c(OC)cc2NC(=O)c2cc(=O)c3ccccc3o2)cc1)Cc1ccc2cn[nH]c2c1 [Compound 185] | > 1000
COc1cc(NC(=O)c2cc(=O)c3ccccc3o2)c(C(=O)Nc2ccc(CCN(Cc3ccc(-n4ccnc4)cc3)Cc3ccc4cnn(C)c4c3)cc2)cc1OC [Compound 186] | 100 to 250
COc1cc(NC(=O)c2cc(=O)c3ccccc3o2)c(C(=O)Nc2ccc(CCN(Cc3ccc(-c4ccncc4)cc3)Cc3ccc4cnn(C)c4c3)cc2)cc1OC [Compound 187] | > 1000
COc1cc(NC(=O)c2cc(=O)c3ccccc3o2)c(C(=O)Nc2ccc(CCN(Cc3ccc(-c4ccncc4)cc3)Cc3ccc4c(cnn4C)c3)cc2)cc1OC [Compound 188] | > 1000
COc1cc(NC(=O)c2cc(=O)c3ccccc3o2)c(C(=O)Nc2ccc(CCN(Cc3ccc(-c4cccnc4)cc3)Cc3ccc4c(cnn4C)c3)cc2)cc1OC [Compound 189] | > 1000
COc1cc(NC(=O)c2cc(=O)c3ccccc3o2)c(C(=O)Nc2ccc(CCN(C)Cc3ccc4c(ccn4C)c3)cc2)cc1OC [Compound 190] | > 1000
CCn1ncc2cc(CN(C)CCc3ccc(NC(=O)c4cc(OC)c(OC)cc4NC(=O)c4cc(=O)c5ccccc5o4)cc3)ccc21 [Compound 191] | > 1000
CCN(CCc1ccc(NC(=O)c2cc(OC)c(OC)cc2NC(=O)c2cc(=O)c3ccccc3o2)cc1)Cc1ccc2c(cnn2CC)c1 [Compound 192] | > 1000
COc1cc(NC(=O)c2cc(=O)c3cc(C)cc(C)c3o2)c(C(=O)Nc2ccc(CCN(Cc3cccc(-n4ccnc4)c3)Cc3ccc4c(cnn4C)c3)cc2)cc1OC [Compound 197] | > 1000
COc1cc(NC(=O)C2CC(=O)c3cc(C)ccc3O2)c(C(=O)Nc2ccc(CCN(Cc3cccc(-n4ccnc4)c3)Cc3ccc4c(cnn4C)c3)cc2)cc1OC (stereo not drawn) [Compound 199] | 500 to 1000
COc1cc(NC(=O)c2cc(=O)c3ccccc3o2)c(C(=O)Nc2ccc(CCN(Cc3cncs3)Cc3cccc4cnn(C)c34)cc2)cc1OC [Compound 200] | > 1000
COc1cc(NC(=O)c2cc(=O)c3ccccc3o2)c(C(=O)Nc2ccc(CCN(Cc3cccnc3)Cc3cccc4cnn(C)c34)cc2)cc1OC [Compound 201] | 500 to 1000
COc1cc(NC(=O)c2cc(=O)c3ccccc3o2)c(C(=O)Nc2ccc(CCN(Cc3cccc(-c4nc(C)no4)c3)Cc3cncs3)cc2)cc1OC [Compound 202] | 500 to 1000
COc1cc(NC(=O)c2cc(=O)c3ccccc3o2)c(C(=O)Nc2ccc(CCN(Cc3cccnc3)Cc3cccc(-c4nc(C)no4)c3)cc2)cc1OC [Compound 203] | 250 to 500

SMILES | IC50 [nM]
COc1cc(NC(=O)c2cc(=O)c3ccccc3o2)c(C(=O)Nc2ccc(CCN(Cc3cccc(-n4ccnc4)c3)Cc3ccc4nn(C)cc4c3)cc2)cc1OC [Compound 204] | 250 to 500
CCn1ncc2cc(CN(CCc3ccc(NC(=O)c4cc(OC)c(OC)cc4NC(=O)C4CC(=O)c5ccccc5O4)cc3)Cc3cccc(-n4ccnc4)c3)ccc21 (stereo not drawn) [Compound 205] | 500 to 1000
COc1cc(NC(=O)c2cc(=O)c3ccccc3o2)c(C(=O)Nc2ccc(CCN(Cc3cccc(-n4ccnc4)c3)Cc3ccc(C)c4ncccc34)cc2)cc1OC [Compound 206] | > 1000
CCn1c2ccccc2c2cc(CN(CCc3ccc(NC(=O)c4cc(OC)c(OC)cc4NC(=O)c4cc(=O)c5ccccc5o4)cc3)Cc3cccc(-n4ccnc4)c3)ccc21 [Compound 212] | > 1000
COc1cc(NC(=O)C2CC(=O)c3ccccc3O2)c(C(=O)Nc2ccc(CCN(Cc3cccc(-n4ccnc4)c3)Cc3cc(OC)c(OC)c(OC)c3)cc2)cc1OC (stereo not drawn) [Compound 213] | < 100
COc1cc(NC(=O)c2cc(=O)c3ccccc3o2)c(C(=O)Nc2ccc(CCNCc3cccnc3)cc2)cc1OC [Compound 214] | > 1000
COc1cc(NC(=O)c2cc(=O)c3ccccc3o2)c(C(=O)Nc2ccc(CCN)cc2)cc1OC [Compound 215] | > 1000
COc1cc(NC(=O)c2cc(=O)c3ccccc3o2)c(C(=O)Nc2ccc(CCN(Cc3cccnc3)Cc3cccc(-n4ccnc4)c3)cc2)cc1OC [Compound 216] | 100 to 250
COc1cncc(CN(CCc2ccc(NC(=O)c3cc(OC)c(OC)cc3NC(=O)c3cc(=O)c4ccccc4o3)cc2)Cc2cccc(-n3ccnc3)c2)c1 [Compound 217] | 100 to 250
COC(=O)c1ccc(CN(CCc2ccc(NC(=O)c3cc(OC)c(OC)cc3NC(=O)c3cc(=O)c4ccccc4o3)cc2)Cc2cccc(-n3ccnc3)c2)cc1 [Compound 218] | 100 to 250
COc1ccc(CN(CCc2ccc(NC(=O)c3cc(OC)c(OC)cc3NC(=O)c3cc(=O)c4ccccc4o3)cc2)Cc2cccc(-n3ccnc3)c2)cc1C#N [Compound 219] | 100 to 250
COc1cncc(CN(CCc2ccc(NC(=O)c3cc(OC)c(OC)cc3NC(=O)c3cc(=O)c4ccccc4o3)cc2)Cc2ccc3c(c2)nnn3C)c1 [Compound 220] | 100 to 250
COc1cc(NC(=O)c2cc(=O)c3ccccc3o2)c(C(=O)Nc2ccc(CCN(Cc3cccnc3)Cc3ccc4c(c3)nnn4C)cc2)cc1OC [Compound 221] | 250 to 500
COc1cncc(CN(CCc2ccc(NC(=O)c3cc(OC)c(OC)cc3NC(=O)c3cc(=O)c4ccc(C)cc4o3)cc2)Cc2ccc3c(cnn3C)c2)c1 [Compound 222] | 100 to 250
COc1cc(NC(=O)c2cc(=O)c3ccccc3o2)c(C(=O)Nc2ccc(CCN(Cc3cncc(O)c3)Cc3ccc4c(cnn4C)c3)cc2)cc1OC [Compound 223] | 100 to 250
COc1cc(NC(=O)c2cc(=O)c3ccccc3o2)c(C(=O)Nc2ccc(CCN(Cc3ccc(N)nc3)Cc3ccc4c(cnn4C)c3)cc2)cc1OC [Compound 224] | > 1000
COc1cc(NC(=O)c2cc(=O)c3ccccc3o2)c(C(=O)Nc2ccc(CCN(Cc3ccc4c(cnn4C)c3)Cc3ccc[n+]([O-])c3)cc2)cc1OC [Compound 225] | > 1000
COc1cc(NC(=O)c2cc(=O)c3ccccc3o2)c(C(=O)Nc2ccc(CCN(Cc3ccc4c(cnn4C)c3)Cc3cccnc3N)cc2)cc1OC [Compound 226] | > 1000
